Data from patent publication US10407407B2, “Benzoimidazole derivatives as PAD4 inhibitors” (GLAXOSMITHKLINE INTELLECTUAL PROPERTY DEVELOPMENT LIMITED, priority 2015, dated 2019).
Values joined by “and” are separate entries in the source; they are usually repeats but may differ in a detail not shown here. Identical values can stand only once.

How the values were obtained:
[1] = molecular target: T1, Recombinant human PAD4 (residues 1-663) (Homo sapiens, UniProt Q9UM07); test: PAD4 enzyme assay (FLINT NH3 release, BAEE substrate; conditions A or B); format: biochemical; conditions: PAD4 enzyme assay above or similar assays; read-out: mean pIC50 (converted)
T1 construct: Recombinant human PAD4 (residues 1-663) was expressed in E. coli as an N-terminal GST-tagged fusion protein; GST (N, cleaved yes); made in house; host or cells: E. coli
Method: During purification of the protein, the GST tag was removed by cleavage with PreScission Protease (GE Healthcare). Activity of the final PAD4 enzyme and batch consistency was determined by employing the enzyme in the FLINT NH3 release assay in the presence of N-a-benzoyl-L-arginine ethyl ester (BAEE) substrate and measuring the levels of NH3 release at a known substrate/enzyme concentration.
(§1) 8 μl of PAD4 enzyme diluted to an assay concentration of 75 nm in assay buffer (a): (100 mM HEPES, 50 mM NaCl, 2 mM DTT and 0.6 mg/ml BSA pH 8), or in assay buffer (b): (100 mM HEPES, 50 mM NaCl, 2 mM DTT, 7.5% glycerol and 1.5 mM CHAPS pH 8), and added to wells containing 0.1 μl of various concentrations of compound or DMSO vehicle (0.8% final) in a Greiner high volume 384 well black plate. Following 30 mins pre-incubation at rt, the reaction was initiated by the addition of 4 μl of substrate buffer containing 3 mM N-a-benzoyl-L-arginine ethyl ester (BAEE), 100 mM HEPES, 50 mM NaCl, 600 uM CaCl2 (2H2O) and 2 mM DTT, pH 8.0. The reaction was stopped after 100 mins with the addition of 38 μl stop/detection buffer containing 50 mM EDTA, 2.6 mM phthalaldehyde and 2.6 mM DTT.
as §1, with “of 30 nM” for “of 75 nm”, “buffer” for “buffer (a):”, “BSA” for “BSA pH 8), or in assay buffer (b): (100 mM HEPES, 50 mM NaCl, 2 mM DTT, 7.5% glycerol and 1.5 mM CHAPS”, “after 60” for “after 100”

[2] = molecular target: T2, Recombinant human PAD2 (residues 1-665) (Homo sapiens, UniProt Q9Y2J8); test: PAD2 enzyme assay (FLINT NH3 release, BAEE substrate); format: biochemical; conditions: PAD2 enzyme assay above or similar assays; to assess selectivity for PAD4 over PAD2; read-out: mean pIC50 (converted)
T2 construct: Recombinant human PAD2 (residues 1-665) was expressed in baculovirus-infected Sf9 insect cells; 6His-FLAG (N); made in house; host or cells: baculovirus-infected Sf9 insect cells
Method: Activity of the final product was determined using a FLINT NH3 release assay.
8 μl of PAD2 enzyme diluted to an assay concentration of 30 nM in assay buffer (100 mM HEPES, 50 mM NaCl, 2 mM DTT, 7.5% glycerol and 1.5 mM CHAPS pH 8), and added to wells containing 0.1 μl of various concentrations of compound or DMSO vehicle (0.8% final) in a Greiner high volume 384 well black plate. […] The reaction was stopped after 90 mins with the addition of […] stop/detection buffer containing 50 mM EDTA, 2.6 mM phthalaldehyde and 2.6 mM DTT.

T1 sequence (Q9UM07 whole entry, the tested form may be a part): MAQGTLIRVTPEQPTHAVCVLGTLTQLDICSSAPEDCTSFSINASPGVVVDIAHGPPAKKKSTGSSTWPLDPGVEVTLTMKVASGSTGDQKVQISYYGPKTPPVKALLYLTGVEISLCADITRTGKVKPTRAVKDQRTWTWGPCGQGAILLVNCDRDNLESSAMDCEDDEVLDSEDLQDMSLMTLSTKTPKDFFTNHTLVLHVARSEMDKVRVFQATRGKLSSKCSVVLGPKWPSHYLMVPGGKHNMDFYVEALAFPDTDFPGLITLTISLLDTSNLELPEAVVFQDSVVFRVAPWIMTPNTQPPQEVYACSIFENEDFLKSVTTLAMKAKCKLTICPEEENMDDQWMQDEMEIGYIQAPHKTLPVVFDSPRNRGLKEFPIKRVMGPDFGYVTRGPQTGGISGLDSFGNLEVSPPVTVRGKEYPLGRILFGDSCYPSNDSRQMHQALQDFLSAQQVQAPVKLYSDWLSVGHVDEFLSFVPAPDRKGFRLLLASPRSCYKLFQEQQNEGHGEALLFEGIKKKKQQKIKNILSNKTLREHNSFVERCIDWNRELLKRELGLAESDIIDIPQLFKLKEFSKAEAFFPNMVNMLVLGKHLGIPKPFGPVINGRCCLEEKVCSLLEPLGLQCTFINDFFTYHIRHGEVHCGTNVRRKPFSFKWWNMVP
T2 sequence (Q9Y2J8 whole entry, the tested form may be a part): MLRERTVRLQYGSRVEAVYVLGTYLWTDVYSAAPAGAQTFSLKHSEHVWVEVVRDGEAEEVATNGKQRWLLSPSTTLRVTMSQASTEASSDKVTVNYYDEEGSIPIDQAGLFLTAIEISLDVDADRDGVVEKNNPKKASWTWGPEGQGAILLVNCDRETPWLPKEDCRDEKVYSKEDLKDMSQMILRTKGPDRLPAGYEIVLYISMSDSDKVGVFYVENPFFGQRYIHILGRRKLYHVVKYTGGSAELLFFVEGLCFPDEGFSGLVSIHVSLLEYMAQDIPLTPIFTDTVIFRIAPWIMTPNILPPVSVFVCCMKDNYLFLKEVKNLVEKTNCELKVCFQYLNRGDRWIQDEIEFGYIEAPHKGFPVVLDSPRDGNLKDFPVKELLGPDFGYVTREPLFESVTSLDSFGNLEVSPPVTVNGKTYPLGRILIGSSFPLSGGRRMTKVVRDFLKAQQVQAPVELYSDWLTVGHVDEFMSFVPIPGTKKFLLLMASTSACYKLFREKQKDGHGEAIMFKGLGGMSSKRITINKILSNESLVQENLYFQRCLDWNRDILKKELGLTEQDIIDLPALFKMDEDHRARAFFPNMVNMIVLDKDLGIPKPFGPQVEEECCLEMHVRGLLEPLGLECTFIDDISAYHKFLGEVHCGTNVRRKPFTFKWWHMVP

| Structure (SMILES) | IC50 [1] | IC50 [2] [µM] |
| --- | --- | --- |
| Cn1c(-c2cc3ccccc3n2Cc2cccnc2)nc2cc(C(=O)N3CCC[C@@H](N)C3)ccc21 [Example 15, (3R)-1-({1-Methyl-2-[1-(3-pyridinylmethyl)-1H-indol-2-yl]-1H-benzimidazol-5-yl}carbonyl)-3-piperidinamine] | 0.0398 to 0.398 µM and 0.398 µM | – |
| Cn1cc(Cn2c(-c3nc4cc(C(=O)N5CCC[C@@H](N)C5)ccc4n3C)cc3ccccc32)cn1 [Example 20b, (3R)-1-[(1-Methyl-2-{1-[(1-methyl-1H-pyrazol-4-yl)methyl]-1H-indol-2-yl}-1H-benzimidazol-5-yl)carbonyl]-3-piperidinamine] | 0.0398 to 0.398 µM and 0.398 µM | – |
| Cn1c(-c2cc3ccccc3n2Cc2ccccc2)nc2cc(C(=O)N3CCC[C@@H](N)C3)ccc21 [Example 24, (3R)-1-({1-Methyl-2-[1-(phenylmethyl)-1H-indol-2-yl]-1H-benzimidazol-5-yl}carbonyl)-3-piperidinamine] | 0.0398 to 0.398 µM and 0.158 µM | – |
| Cn1c(-c2cc3ccccc3n2CC2CC2)nc2cc(C(=O)N3CC[C@@H](O)[C@@H](N)C3)ccc21 [Example 65, ((3S,4R)-3-Amino-4-hydroxypiperidin-1-yl)(2-(1-(cyclopropylmethyl)-1H-indol-2-yl)-1-methyl-1H-benzo[d]imidazol-5-yl)methanone] | 0.0398 to 0.398 µM and 0.158 µM | > 79.4 |
